Measured values reported in patent US20070021421A1 (priority 2005, published 2007).
Entries after “also recorded” stand apart in the source; their conditions may differ. Where two headings read alike, the source gives them in different places.

Experiments:
ALS patients = settings: cited from earlier work
C57BL/6J mice = test system: C57BL/6J mice
Source text: Since PD, HD, and ALS share aspects of pathogenesis and pathology of motor dysfunction, gait dynamics were also studied in the SOD1 G93A transgenic mouse model of ALS (Gurney et al. Science 1994, 264: 1772-1775) to compare gait variability in mouse models of basal ganglia disease to a mouse model of motor neuron disease. Male C57BL/6J mice (7-8 weeks; ˜22 gm) were purchased from The Jackson Laboratory (Bar Harbor, Me.). Mice transgenic for the mutated human SOD1 G93A (TgN[SOD1-G93A]lGur) (SOD1 G93A) and wild-type human SOD1 (TgN[SOD1]2Gur) (wild-type controls) were purchased from The Jackson Laboratory (Bar Harbor, ME) when the mice were ˜7.5 weeks old. Animals were maintained on a 12-hour light: 12-hour dark schedule with ad libitum access to food and water. Handling and care of mice were consistent with federal guidelines and approved institutional protocols.
MPTP. A mouse model of PD was generated in the following manner. The dopaminergic neurotoxin 1-methyl-4-phenyl-1,2,3,6-tetrahydropyridine (MPTP) (Sigma-Aldrich, St. Louis, Mo.) was dissolved in saline and was administered 30 mg/kg i.p. to 7 mice every 24 hours for 3 days (MPTP-treated mice), based on previously published studies (Colotla et al. Neurotoxicol Teratol 1990, 12: 405-407; Shimoji et al. Brain Res Mol Brain Res 2005, 134:103-108). Equivolume (0.2 ml) of saline was administered i.p. to 7 control mice every 24 hours for 3 days (saline-treated mice).
3NP. A mouse model of HD was generated in the following manner. The mitochondrial toxin 3-nitropropionic acid (3NP) (Sigma-Aldrich, St. Louis, Mo.) was dissolved in saline and was administered 3 times to 6 mice: 25 mg/kg i.p. twice, separated by 12 hours (cumulative dose of 50 mg/kg), then 25 mg/kg 24 hours later (cumulative dose of 75 mg/kg) (3NP-treated mice). Equivolume (0.2 ml) of saline was administered i.p. according to the same schedule to 6 control mice.
(§1) Gait dynamics were recorded using ventral plane videography, as previously described (Kale et al. Alcohol Clin Exp Res 2004, 28: 1839-1848; Hampton et al. Physiol Behav 2004, 82: 381-389). Briefly, a motor-driven treadmill with a transparent treadmill belt was built. A high-speed digital video camera was mounted below the transparent treadmill belt. An acrylic compartment, ˜5 cm wide by ˜25 cm long, the length of which was adjustable, was mounted on top of the treadmill to maintain the mouse that was walking on the treadmill belt within the view of the camera. Digital video images of the underside of mice were collected at 80 frames per second. Accordingly, each image obtained represented a 12.5 ms time interval; and the paw area of each image indicated the temporal placement of the paw relative to the treadmill belt. The color images were converted to their binary matrix equivalents, and the areas (in pixels) of the approaching or retreating paws relative to the belt and camera were calculated throughout each stride. Plotting the area of each digital paw print (paw contact area) imaged sequentially in time provided a dynamic gait signal, representing the temporal record of paw placement relative to the treadmill belt (refer to FIGS. 1A and 1B). From these digital paw print images, indices of gait and gait variability were determined. Each gait signal for each limb comprised a stride duration (stride time), which included the stance duration when the paw of a limb was in contact with the walking surface, plus the swing duration when the paw of the same limb was not in contact with the walking surface. Stance duration was further subdivided into braking duration (increasing paw contact area over time) and propulsion duration (decreasing paw contact area over time) (refer to FIG. 1B).
Stride frequency was calculated by counting the number of gait signals over time. Stride length was calculated from the equation: speed=stride frequency X stride length.

mice = settings: cited from earlier work
rats = settings: MPTP 3 mg/kg; rats (Tsai et al.); cited from earlier work
SOD1 G93A mice = assay: Propranolol in drinking water of the SOD1 G93A mouse model of ALS (gait, walking ability, survival, body weight); type: in vivo
Source text: as §1, with “Briefly,” for “Gait dynamics were recorded using ventral plane videography, as previously described (Kale et al. Alcohol Clin Exp Res 2004, 28: 1839-1848; Hampton et al. Physiol Behav 2004, 82: 381-389). Briefly,”, “Accordingly, each image obtained represented a 12.5 ms time interval; and the paw area of each image indicated the temporal placement of the paw relative to the treadmill belt.” left out
Stride frequency was calculated by counting the number of gait signals over time. Stride length was calculated from the equation: speed=stride frequency X stride length. To obtain stance widths and paw placement angles at full stance, ellipses were fitted to the paws, and the centers, vertices, and major axes of the ellipses were determined. Forelimb and hind limb stance widths were calculated as the perpendicular distance between the major axes of the left and right paw images during peak stance. Gait data were collected and pooled from both the left and right forelimbs, and the left and right hind limbs.
Accordingly, five SOD1 G93A mice were treated with propranolol, the drug having been added to their drinking water beginning at six weeks of age.

[1] = 3NP 75 mg/kg cumulative dose, 34 cm/s, n=3
[2] = 3NP 75 mg/kg cumulative dose, mice that could walk
[3] = 3NP 75 mg/kg cumulative, two mice with hind limb gait failure, forelimb stepping only
[4] = after 2nd administration of 3NP (50 mg/kg cumulative)
[5] = cumulative dose of 560 mg/kg of 3NP
[6] = MPTP 90 mg/kg cumulative dose, 34 cm/s
[7] = MPTP after 3 treatments, 34 cm/s
[8] = MPTP, 3 administrations of 30 mg/kg, 34 cm/s

SMILES: Nc1nc2ccc(OC(F)(F)F)cc2s1 [Riluzole]
- side effects (ALS patients): causes liver damage

SMILES: O=C(O)CC[N+](=O)[O-] [3NP, 3-nitropropionic acid]
- stride length (C57BL/6J mice; 3NP 75 mg/kg cumulative dose i.p., 34 cm/s, n=3 mice that could walk): 7.3 ± 0.1 cm
- % Stance Duration (C57BL/6J mice; [1]): 59.4±2.3%
- % Swing Duration (C57BL/6J mice; [1]): 40.6±2.3%
- Forelimb Paw Placement Angle (C57BL/6J mice; [1]): 3.5 ± 1.1 °
- Forelimb Stance Width (C57BL/6J mice; [1]): 1.7 ± 0.1 cm
- Hind limb Paw Placement Angle (C57BL/6J mice; [1]): 15.2±1.0 °
- Hind limb Stance Width (C57BL/6J mice; [1]): 2.8±0.2 cm
- Stride Duration (C57BL/6J mice; [1]): 217 ± 5 ms
- Stride Frequency (C57BL/6J mice; [1]): 4.9 ± 0.1 Hz
- percentage of stance duration spent in propulsion (propulsion/stance) of the hind limbs (C57BL/6J mice; [1]): 45.2±2.5%
- CV of forelimb stance width (C57BL/6J mice; [2]): 17.3±2.4%
- CV of forelimb stride length (C57BL/6J mice; [2]): 17.9±1.6%
- Stance width variability of the forelimbs (C57BL/6J mice; [2]): 0.31±0.04 cm
- Hind limb stride length variability and hind limb stance width variability (C57BL/6J mice; 3NP 75 mg/kg cumulative dose, mice that could walk, vs saline-treated mice): not different
- Stride length variability of the forelimbs (C57BL/6J mice; 3NP 75 mg/kg cumulative dose, three mice that could walk): 1.31±0.09 cm
- stance duration (forelimbs) (C57BL/6J mice; [3]): 133 ± 5 ms
- stride frequency (forelimbs) (C57BL/6J mice; [3]): 5.0±0.1 Hz
- stride length of forelimbs (C57BL/6J mice; [3]): 7.1±0.1 cm
- Stride length, stride frequency, stance duration, and swing duration (C57BL/6J mice; after 1st and 2nd administrations of 25 mg/kg 3NP): not affected
- CV of forelimb stance width (C57BL/6J mice; [4]): 15.0±1.2%
- Stance width variability of the forelimbs (C57BL/6J mice; [4]): 0.28±0.01 cm
- stride length variability and stance width variability of the hind limbs (C57BL/6J mice; [4]): Neither stride length variability nor stance width variability of the hind limbs was affected
- paw placement angle of the hind limbs (C57BL/6J mice; after 2nd administration of 3NP (cumulative dose of 50 mg/kg), n=6): 16.6±1.2 °
- 3NP-treated mice that could not walk on the treadmill belt (C57BL/6J mice; after 3rd administration (75 mg/kg cumulative dose), 34 cm/s, 6 mice): half
- effect of aggressive doses (C57BL/6J mice; aggressive (higher) doses of 3NP, data not shown): high mortality or the inability of the mice to walk at all on the treadmill belt
- forelimb stride length (mice; [5]): comparable to saline-treated mice
- hind limb stride length (mice; [5]): shortened
- stride length of forelimbs and hind limbs (mice; cumulative dose of 3NP 340 mg/kg): no differences

SMILES: CN1CC=C(c2ccccc2)CC1 [MPTP, 1-methyl-4-phenyl-1,2,3,6-tetrahydropyridine]
- Forelimb Paw Placement Angle (C57BL/6J mice; [6]): 2.6 ± 0.4 °
- Forelimb Stance Width (C57BL/6J mice; [6]): 1.6 ± 0.1 cm
- Hind limb Paw Placement Angle (C57BL/6J mice; [6]): 10.8 ± 1.3 °
- Hind limb Stance Width (C57BL/6J mice; [6]): 2.2 ± 0.1 cm
- Stride Duration (C57BL/6J mice; MPTP 90 mg/kg cumulative dose, 34 cm/s, n=7): 194 ± 1 ms
- % Stance Duration (C57BL/6J mice; MPTP 90 mg/kg cumulative dose, 34 cm/s, stance/stride): 55.9 ± 1.1%
- % Swing Duration (C57BL/6J mice; MPTP 90 mg/kg cumulative dose, 34 cm/s, swing/stride): 44.1 ± 1.1%
- CV of forelimb stance width (C57BL/6J mice; [7]): 16.7±1.3%
- CV of hind limb stance width (C57BL/6J mice; [7]): 9.1±1.1%
- Stance width variability of the forelimbs (C57BL/6J mice; [7]): 0.26±0.01 cm
- Stance width variability of the hind limbs (C57BL/6J mice; [7]): 0.20±0.02 cm
- coefficient of variation (CV) of forelimb stride length (C57BL/6J mice; [7]): 13.6±0.8%
- CV of hind limb stride length (C57BL/6J mice; MPTP after 3 treatments, 34 cm/s, NS vs saline): 10.0±1.5%
- Stride length variability of the forelimbs (C57BL/6J mice; MPTP after 3 treatments, standard deviation, 34 cm/s): 0.91±0.04 cm
- Stride length variability of the hind limbs (C57BL/6J mice; MPTP after 3 treatments, vs saline-treated mice): not different
- stance duration of the forelimbs (C57BL/6J mice; [8]): 116 ± 2 ms
- swing duration of the hind limbs (C57BL/6J mice; [8]): 92 ± 3 ms
- stride length (rats): significantly reduce stride length

SMILES: CC(C)NCC(O)COc1cccc2ccccc12 (centres unmarked) [propranolol]
- increase in paw placement angle variability with disease progression (SOD1 G93A mice; age 12 weeks through 18 weeks): blunted or prevented; also recorded: prevented or diminished
- extent of gait disturbances (SOD1 G93A mice; propranolol in drinking water from age ~42 days, five mice): mitigated and delayed
- stride length (SOD1 G93A mice; propranolol in drinking water, vs longer strides with untreated tap water): more normal
- body weight (SOD1 G93A mice; relative to tap water-treated control mice, FIG. 8): reduction in body weight
- mice that could successfully walk on a moving treadmill belt (SOD1 G93A mice; ~16 weeks of age, tap water controls one out of five): three out of five
- mice surviving (SOD1 G93A mice; ~age 17 weeks, five mice per group, tap water controls one): 3
